d = 2'-deoxy (DNA); r = 2'-OH (RNA)
How the values were obtained:
Format in all cases: cell-based, human
[1] = test system: JAG1; assay: Immunoblotting of JAG1 after siRNA transfection (silencing efficiency); details: RDEB-FBs; for JAG1 expression levels (immunoblotting): 48 h after transfection, absence of TGF-β1, vs Scramble
Text: Transfection of short interfering RNAs targeting Jagged 1. Two candidate short interfering RNA (siRNA) sequences complementary to different regions of the human JAG1 mRNA, si-JAG1-1 and si-JAG1-2, were chosen to be functionally evaluated in the context of transfection experiments. siJAG1-1 and siJAG1-2 sequences are indicated below: 5′-GAAUGUGAGGCCAAACCUU[dT][dT]-3′ (SEQ ID NO:1) (si-JAG1-1, cod. SASI_Hs01_00100441) and 5′-CCUGUAACAUAGCCCGAAA[dT][dT]-3′ (SEQ ID NO:2) (si-JAG1-2, cod. SASI_Hs01_00100442). Both siRNAs were purchased from Merck (Merck, Darmstadt, Germany). Lipofectamine 2000 (Thermo Fisher Scientific, Waltham, MA, USA) was used to transfect siRNAs, following manufacturer's protocol. After 48 h, the silencing efficiency of the two candidate siRNAs was assessed by immunoblotting (IB) (FIG. 2). […] Accordingly, si-JAG1-2, throughout the text indicated as si-JAG1, was selected for all downstream silencing experiments. The MISSION® siRNA Universal Negative Control #1 (Merck) was used as negative control for siRNA transfections.
(§1) Whole-cell lysates were obtained in radioimmunoprecipitation assay (RIPA) buffer (Sigma-Aldrich) supplemented with phosphatase- and protease inhibitors (Merck). Different amounts of protein lysates were run under reducing conditions by using 4-12% gradient precast gels (Thermo Fisher Scientific) or hand-casting polyacrylamide gels (4-8%), depending on the protein to be assayed. Amersham™ Protran® Premium nitrocellulose membranes (pore size 0.2 μm) (Merck) were immunoblotted with primary antibodies indicated in Table 3 and incubated with horseradish peroxidase-linked secondary antibodies.

[2] = test system: α-SMA, TAGLN, CNN1, JAG1; assay: Immunoblotting of myofibroblast/fibrotic markers in RDEB fibroblasts; details: RDEB-FBs vs Scramble, treated or not with TGF-β1
Text: as §1
Detection was performed using Cytiva ECL™ Prime Western Blotting System (Merck) or SuperSignal West Femto (Thermo Fisher Scientific), depending on the protein to be assayed. Antibody against Notch1 (all forms; clone bTAN20) was obtained from the Developmental Studies Hybridoma Bank (DSHB) at the University of Iowa (DSHB, Iowa City, IA, USA). GAPDH (clone 14C10), Jagged1 (clone 28H8) and NOTCH1 intracellular domain (clone D3B8) were obtained from Cell Signaling (Cell Signaling Technology Inc., Beverly, MA, USA). Antibodies against TAGLN (clone #859112) and CNN1 (clone #836701) were from R&D Systems (R&D Systems, Inc. Minneapolis, MN, USA). Antibody against α-SMA (clone 1A4) was purchased from Sigma-Aldrich. Antibody against lamin B1 (LMNB1) was from Abcam (Cambridge, UK). […]

[3] = test system: primary fibroblasts from RDEB patients (RDEB-FBs); assay: Collagen lattice contraction (CLC) assay; details: RDEB-FBs vs Scramble siRNA, with and without TGF-β1
Procedure: RDEB-FBs (5×10^5 cells) were mixed in a collagen buffer and seeded into 12-well plates as previously described. After gelation, fibroblast-populated collagen lattices were detached from the wells and left floating. RDEB-FBs were treated with 20 μM of DAPT and PF-03804014 in DMEM containing 0.1% BSA, in the presence or absence of TGF-β1 at 2 ng/mL, as contraction booster. JAG1-silenced RDEB-FBs were embedded in collagen lattices 24 h after siRNA transfection. In both cases, images were acquired with ChemiDoc™ XRS+ System (Bio-Rad, Hercules, CA, USA) at the detachment of collagen lattices from the wells (time 0, TO) and after 48 h. Gel areas were measured by ImageJ software and photos at TO were used as references.

Substance	JAG1 expression levels (immunoblotting) [1]	protein levels of α-SMA, CNN1, TAGLN, JAG1, NOTCH FL after JAG1 silencing [2]	JAG1 protein levels (immunoblotting) ([1]; presence of TGF-β1 2 ng/mL for 24 h, compared with si-JAG1-1)	cell ability to contract type I collagen matrix after JAG1 silencing [3]
si-JAG1-1: short interfering RNA targeting human JAG1 mRNA, 5′-GAAUGUGAGGCCAAACCUU[dT][dT]-3′ (SEQ ID NO:1) (sense GAAUGUGAGGCCAAACCUUTT; sugars from the 5' end r19 d2, backbone and methylation of C not given here)	able to reduce JAG1 expression levels			
si-JAG1-2: short interfering RNA targeting human JAG1 mRNA, 5′-CCUGUAACAUAGCCCGAAA[dT][dT]-3′ (SEQ ID NO:2); indicated as si-JAG1 throughout (sense CCUGUAACAUAGCCCGAAATT; sugars from the 5' end r19 d2, backbone and methylation of C not given here)	able to reduce JAG1 expression levels	significant reduction of α-SMA, CNN1, TAGLN, JAG1 and unprocessed NOTCH1 receptor	major reduction of JAG1 protein levels	reduced
